According to patent publication US5134137A, “Cephalosporin antibiotics” (The Upjohn Company, priority 1990, dated 1992):
In brackets after ≈: the same amount, converted by molar mass. Like-named read-outs stand apart in the source and are kept apart here. One block for each compound: values may come before it.

Assays:
Type in all cases: cell-based
Pasteurella hemolytica = assay: MIC (minimum inhibitory concentration), agar dilution, Pasteurella hemolytica
Description: (§1) Stock solution of each test antibiotic compound were prepared to have a concentration of 2 mg. of the test compound per milliliter in sterile water of 0.1M ammonium acetate solution. The amount of each compound used was adjusted for base compound activity as calculated from the purity data for the selected batch of compound.
(§2) The dilution procedure described by Washington and Sutter [Manual of Clinical Microbiology, 3rd, Edit. (Lennett, E. H. et al, Eds.), pp. 453-458 (1980), American Society for Microbiology, Washington, D.C.] was modified so that serial concentrations of 128 to 0.0625 microgram/ml. in sterile water was obtained. Then 1.5 ml. aliquots of these test antibiotic dilution mixtures are added to 13.5 molten (50° C.) Mueller-Hinton agar. Each resulting mixture is poured into 15×100 mm, sterile Petri plates and allowed to dry at room temperature overnight.
(§3) Test bacterial cultures are maintained at -70° C. on glass beads. [See R. J. Yancey, Jr. et al, Amer. Jr. of Vet. Research, 48, No. 7, pp. 1050-1053, (1987)]. At least one bacteria-laden bead per culture is dropped into one ml. of brain heart infusion (BHI) broth for overnight culture at 37° C. in 5% V/V carbon dioxide in air atmosphere.
(§4) On the data of assay, 2 to 8 drops of the bacterial broth cultures are transferred to fresh BHI broth (1 ml.) and the mixture is incubated for 4 to 6 hours at 37° C. in a 5% V/V carbon dioxide in air atmosphere. The resulting cultures are then diluted to match a 0.5 MacFarland standard and further diluted 1:20 V/V with sterile saline solution.
(§5) A 0.001 ml. drop of the resulting mixture, containing approximately 10^3 to 10^4 colony forming units (CFU) of each test bacteria organism, is dispensed onto the surface of the test antibiotic compound test plates with a Steer's type replicator. The resulting innoculated plates are incubated 16 to 18 hours at 37° C. with a carbon dioxide atmosphere.
as §1, with “Stock solutions” for “Stock solution”
as §2, with “mm.” for “mm,”
as §2, with “for Microbiology.” for “for Microbiology,”, “15×100 mm.” for “15×100 mm,”
as §3, with “culture” for “cultures”
(§6) On the day of assay, 2 to 8 drops of the bacterial broth cultures are transferred to fresh BHI broth (1 ml.) and the mixture is incubated for 4 to 6 hours at 37° C. in a 5% V/V carbon dioxide in air atmosphere. […]

Pasteurella multocida = assay: MIC, agar dilution, Pasteurella multocida; conditions: strain UC9581
Description: as §1, §2, §3, §4, §5
as §1, with “Stock solutions” for “Stock solution”
as §2, with “mm.” for “mm,”
as §2, with “for Microbiology.” for “for Microbiology,”, “15×100 mm.” for “15×100 mm,”
as §3, with “culture” for “cultures”
as §6

Escherichia coli = assay: MIC, agar dilution, Escherichia coli
Description: as §1, §2, §3, §4, §5
as §1, with “Stock solutions” for “Stock solution”
as §2, with “mm.” for “mm,”
as §2, with “for Microbiology.” for “for Microbiology,”, “15×100 mm.” for “15×100 mm,”
as §3, with “culture” for “cultures”
as §6

Salmonella choleraesuis = assay: MIC, agar dilution, Salmonella choleraesuis
Description: as §1, §2, §3, §4, §5
as §1, with “Stock solutions” for “Stock solution”
as §2, with “mm.” for “mm,”
as §2, with “for Microbiology.” for “for Microbiology,”, “15×100 mm.” for “15×100 mm,”
as §3, with “culture” for “cultures”
as §6

Salmonella typhimurium = assay: MIC, agar dilution, Salmonella typhimurium
Description: as §1, §2, §3, §4, §5
as §1, with “Stock solutions” for “Stock solution”
as §2, with “mm.” for “mm,”
as §2, with “for Microbiology.” for “for Microbiology,”, “15×100 mm.” for “15×100 mm,”
as §3, with “culture” for “cultures”
as §6

[1] = tested on: Bordetella bronchiseptica; assay: MIC, agar dilution, Bordetella bronchiseptica; conditions: strain UC6313
Description: as §1, §2, §3, §4, §5
as §1, with “Stock solutions” for “Stock solution”
as §2, with “mm.” for “mm,”
as §2, with “for Microbiology.” for “for Microbiology,”, “15×100 mm.” for “15×100 mm,”
as §3, with “culture” for “cultures”
as §6

Pseudomonas aeruginosa = assay: MIC, agar dilution, Pseudomonas aeruginosa; conditions: strain ATCC 27853
Description: as §1, §2, §3, §4, §5
as §1, with “Stock solutions” for “Stock solution”
as §2, with “mm.” for “mm,”
as §2, with “for Microbiology.” for “for Microbiology,”, “15×100 mm.” for “15×100 mm,”
as §3, with “culture” for “cultures”
as §6

Staphylococcus aureus = assay: MIC, agar dilution, Staphylococcus aureus
Description: as §1, §2, §3, §4, §5
as §1, with “Stock solutions” for “Stock solution”
as §2, with “mm.” for “mm,”
as §2, with “for Microbiology.” for “for Microbiology,”, “15×100 mm.” for “15×100 mm,”
as §3, with “culture” for “cultures”
as §6

Streptococcus agalactiae = assay: MIC, agar dilution, Streptococcus agalactiae
Description: as §1, §2, §3, §4, §5
as §1, with “Stock solutions” for “Stock solution”
as §2, with “mm.” for “mm,”
as §2, with “for Microbiology.” for “for Microbiology,”, “15×100 mm.” for “15×100 mm,”
as §3, with “culture” for “cultures”
as §6

Streptococcus bovis = assay: MIC, agar dilution, Streptococcus bovis; conditions: strain UC6281
Description: as §1, §2, §3, §4, §5
as §1, with “Stock solutions” for “Stock solution”
as §2, with “mm.” for “mm,”
as §2, with “for Microbiology.” for “for Microbiology,”, “15×100 mm.” for “15×100 mm,”
as §3, with “culture” for “cultures”
as §6

[2] = tested on: Streptococcus dysgalactiae; assay: MIC, agar dilution, Streptococcus dysgalactiae; conditions: strain UC251
Description: as §1, §2, §3, §4, §5
as §1, with “Stock solutions” for “Stock solution”
as §2, with “mm.” for “mm,”
as §2, with “for Microbiology.” for “for Microbiology,”, “15×100 mm.” for “15×100 mm,”
as §3, with “culture” for “cultures”
as §6

Enterococcus faecium = assay: MIC, agar dilution, Enterococcus faecium; conditions: strain UC241
Description: as §1, with “Stock solutions” for “Stock solution”
as §2, §3, §4, §5, §1
as §2, with “mm.” for “mm,”
as §2, with “for Microbiology.” for “for Microbiology,”, “15×100 mm.” for “15×100 mm,”
as §3, with “culture” for “cultures”
as §6

Enterococcus faecalis = assay: MIC, agar dilution, Enterococcus faecalis; conditions: strain UC694
Description: as §1, with “Stock solutions” for “Stock solution”
as §2, §3, §4, §5, §1
as §2, with “mm.” for “mm,”
as §2, with “for Microbiology.” for “for Microbiology,”, “15×100 mm.” for “15×100 mm,”
as §3, with “culture” for “cultures”
as §6

Streptococcus suis = assay: MIC, agar dilution, Streptococcus suis; conditions: strain 650-2
Description: as §1, §2, §3, §4, §5
as §1, with “Stock solutions” for “Stock solution”
as §2, with “mm.” for “mm,”
as §2, with “for Microbiology.” for “for Microbiology,”, “15×100 mm.” for “15×100 mm,”
as §3, with “culture” for “cultures”
as §6

Streptococcus uberis = assay: MIC, agar dilution, Streptococcus uberis
Description: as §1, §2, §3, §4, §5
as §1, with “Stock solutions” for “Stock solution”
as §2, with “mm.” for “mm,”
as §2, with “for Microbiology.” for “for Microbiology,”, “15×100 mm.” for “15×100 mm,”
as §3, with “culture” for “cultures”
as §6

Corynebacterium pyogenes = assay: MIC, agar dilution, Corynebacterium pyogenes; conditions: strain 213-2
Description: as §1, §2, §3, §4, §5
as §1, with “Stock solutions” for “Stock solution”
as §2, with “mm.” for “mm,”
as §2, with “for Microbiology.” for “for Microbiology,”, “15×100 mm.” for “15×100 mm,”
as §3, with “culture” for “cultures”
as §6

Micrococcus luteus = assay: MIC, agar dilution, Micrococcus luteus; conditions: strain UC130
Description: as §1, §2, §3, §4, §5
as §1, with “Stock solutions” for “Stock solution”
as §2, with “mm.” for “mm,”
as §2, with “for Microbiology.” for “for Microbiology,”, “15×100 mm.” for “15×100 mm,”
as §3, with “culture” for “cultures”
as §6

MIC (Pasteurella multocida; Pasteurella multocida, read-out: MIC): ≤ 0.06 µg/mL
MIC (Escherichia coli; Escherichia coli, strain UC3784, read-out: MIC): 1 µg/mL (≈ 2.1 µM)
MIC (Escherichia coli; Escherichia coli, strain UC6720, read-out: MIC): 1 µg/mL (≈ 2.1 µM)
MIC (Escherichia coli; Escherichia coli, strain UC9670, read-out: MIC): 1 µg/mL (≈ 2.1 µM)
MIC (Salmonella typhimurium; Salmonella enterica, TYPHIMURIUM / UC6162, strain UC6162, read-out: MIC): 1 µg/mL (≈ 2.1 µM)
MIC (Salmonella typhimurium; Salmonella enterica, TYPHIMURIUM / UC6164, strain UC6164, read-out: MIC): 1 µg/mL (≈ 2.1 µM)
MIC ([1]; Bordetella bronchiseptica, read-out: MIC): > 32 µg/mL
MIC (Pseudomonas aeruginosa; Pseudomonas aeruginosa, ATCC27853, read-out: MIC): > 32 µg/mL
MIC (Staphylococcus aureus; Staphylococcus aureus, strain UC6093, read-out: MIC): 2 µg/mL (≈ 4.21 µM)
MIC (Staphylococcus aureus; Staphylococcus aureus, strain UC6097, read-out: MIC): 2 µg/mL (≈ 4.21 µM)
MIC (Staphylococcus aureus; Staphylococcus aureus, strain UC9203, read-out: MIC): 2 µg/mL (≈ 4.21 µM)
MIC (Streptococcus agalactiae; Streptococcus agalactiae, strain UC3947, read-out: MIC): ≤ 0.06 µg/mL
MIC (Streptococcus agalactiae; Streptococcus agalactiae, strain UC6892, read-out: MIC): ≤ 0.06 µg/mL
MIC (Streptococcus bovis; Streptococcus equinus, read-out: MIC): ≤ 0.06 µg/mL
MIC ([2]; Streptococcus dysgalactiae, read-out: MIC): ≤ 0.06 µg/mL
MIC (Enterococcus faecium; Enterococcus faecium, read-out: MIC): > 32 µg/mL
MIC (Enterococcus faecalis; Enterococcus faecalis, read-out: MIC): > 32 µg/mL
MIC (Streptococcus suis; Streptococcus suis, read-out: MIC): ≤ 0.06 µg/mL
MIC (Streptococcus uberis; Streptococcus uberis, strain UC3946, read-out: MIC): 0.13 µg/mL (≈ 0.273 µM)
MIC (Streptococcus uberis; Streptococcus uberis, strain UC6159, read-out: MIC): 16 µg/mL (≈ 33.6 µM)
MIC (Corynebacterium pyogenes; read-out: MIC): 0.5 µg/mL (≈ 1.05 µM)
MIC (Micrococcus luteus; Micrococcus luteus, read-out: MIC): 0.13 µg/mL (≈ 0.273 µM)
Compound: CO/N=C(\C(=O)N[C@@H]1C(=O)N2C(C(=O)O)=C(CSSC)CS[C@H]12)c1csc(N)n1 [Example 9, 7-[2-(2-amino-1,3-thiazo-4-yl]-2-(methoxyimino)acetamimdo]-3-methyldithiomethyl-3-cephem-4-carboxylic acid]
MIC (Pasteurella hemolytica; Pasteurella, strain UC6531, read-out: MIC): ≤ 0.06 µg/mL
MIC (Pasteurella hemolytica; Pasteurella, strain UC6532, read-out: MIC): ≤ 0.06 µg/mL
MIC (Pasteurella hemolytica; Pasteurella, strain UC9582, read-out: MIC): ≤ 0.06 µg/mL
MIC (Salmonella choleraesuis; Salmonella enterica, CHOLERAESUIS / UC6073, strain UC6073, read-out: MIC): 1 µg/mL (≈ 2.1 µM)
MIC (Salmonella choleraesuis; Salmonella enterica, CHOLERAESUIS / UC6077, strain UC6077, read-out: MIC): 4 µg/mL (≈ 8.41 µM)

MIC (Pasteurella multocida): 4 µg/mL (≈ 8.17 µM)
MIC (Escherichia coli; strain UC3784): 4 µg/mL (≈ 8.17 µM)
MIC (Escherichia coli; strain UC6720): 8 µg/mL (≈ 16.3 µM)
MIC (Escherichia coli; strain UC9670): 4 µg/mL (≈ 8.17 µM)
MIC (Salmonella typhimurium; strain UC6162): 8 µg/mL (≈ 16.3 µM)
MIC (Salmonella typhimurium; strain UC6164): 8 µg/mL (≈ 16.3 µM)
MIC [1]: 16 µg/mL (≈ 32.7 µM)
MIC (Pseudomonas aeruginosa): > 32 µg/mL
MIC (Staphylococcus aureus; strain UC6093): 4 µg/mL (≈ 8.17 µM)
MIC (Staphylococcus aureus; strain UC6097): 2 µg/mL (≈ 4.08 µM)
MIC (Staphylococcus aureus; strain UC9203): 2 µg/mL (≈ 4.08 µM)
MIC (Streptococcus agalactiae; strain UC3947): 2 µg/mL (≈ 4.08 µM)
MIC (Streptococcus agalactiae; strain UC6892): > 32 µg/mL
MIC (Streptococcus bovis): > 32 µg/mL
MIC [2]: ≤ 0.06 µg/mL
MIC (Enterococcus faecium): 32 µg/mL (≈ 65.4 µM)
MIC (Enterococcus faecalis): 32 µg/mL (≈ 65.4 µM)
MIC (Streptococcus suis): ≤ 0.06 µg/mL
MIC (Streptococcus uberis; strain UC3946): 0.25 µg/mL (≈ 0.511 µM)
MIC (Streptococcus uberis; strain UC6159): > 32 µg/mL
MIC (Corynebacterium pyogenes): 32 µg/mL (≈ 65.4 µM)
MIC (Micrococcus luteus): 0.5 µg/mL (≈ 1.02 µM)
Compound: CCSSCC1=C(C(=O)O)N2C(=O)C(NC(=O)C(=NOC)c3csc(N)n3)C2SC1 (stereo not drawn) [Example 10, 7-[2-(2-amino-1,3-thiazol-4-yl)-2-(methoxyimino)acetamido]-3-ethyldithiomethyl-3-cephem-4-carboxylic acid]
MIC (Pasteurella hemolytica; strain UC6531): 0.25 µg/mL (≈ 0.511 µM)
MIC (Pasteurella hemolytica; strain UC6532): 0.25 µg/mL (≈ 0.511 µM)
MIC (Pasteurella hemolytica; strain UC9582): 0.5 µg/mL (≈ 1.02 µM)
MIC (Salmonella choleraesuis; strain UC6073): 16 µg/mL (≈ 32.7 µM)
MIC (Salmonella choleraesuis; strain UC6077): 32 µg/mL (≈ 65.4 µM)
